Test results taken from paper PMC8717366, “Synthesis and Pharmacological Characterization of Visabron, a Backbone Cyclic Peptide Dual Antagonist of α4β1 (VLA-4)/α9β1 Integrin for Therapy of Multiple Sclerosis” (JACS Au, 2021).
Like-named read-outs stand apart in the source and are kept apart here. Numbered stars: 1 amine (or outer) side, 2 acyl side, 3 side chain; on linkers, the order of the positions; unused ones are H or OH. Bridge positions count the residues as written; N and C are the ends. Square brackets hold non-standard residues; d marks the D form. Peptide text beside a SMILES is read from it. N(2-Aminoethyl)Gly = O=C(CN(CCN[*:3])[*:1])[*:2]; CO = O=C([*:1])[*:2]; Nlys = NCCCCNCC(=O)O

Legend:
α1β1-collagen IV = target: T1, α1β1-collagen IV (Homo sapiens, UniProt P05556+P56199); assay: Adhesion of α1-K562 overexpressor cells to immobilized collagen IV; format: cell-based; details: α1-K562 overexpressed cells; 30 min at 37 °C; read-out: IC50 α1β1-collagen IV
T1 construct: expressed in transfected cells; host or cells: K562 transfected with α1 integrin (gift of Dr. M. Hemler)
Protocol: (§1) Cell adhesion assay was carried out as previously described[47] with minor modifications. The day before the experiment, each well was coated with VCAM-1 (3 mg/mL) immobilized on the 96-well plate in PBS by overnight incubation at 4 °C. Thereafter, nonspecific binding was blocked by incubating the wells with 1% (w/v) bovine serum albumin (BSA) in Hank’s Balanced Salt Solution (HBSS) containing 5 mM MgCl2 at room temperature for 1 h before use. The cells were labeled by incubation with 12.5 μM 5-chloromethylfluorescein diacetate (CMFDA) in HBSS without 1% BSA at 37 °C for 30 min. The labeled cells were then centrifuged at 1000 rpm and washed twice with HBSS containing 1% BSA to remove excess CMFDA. Labeled cells (about 1 × 10^5 cells/well) were plated on each well in the presence or absence of visabrons and incubated at 37 °C for 60 min. Unbound cells were removed by washing the wells three times with 1% (w/v) BSA in HBSS, and bound cells were lysed by the addition of 0.5% Triton X-100 (diluted in DDW). The fluorescence in each well was quantified with a SPECTRAFluor Plus plate reader (Tecan), at λex = 485 nm and λem = 530 nm. To determine the number of adhered cells from the fluorescence values, a standard curve was generated by serial dilution of known numbers of CMFDA-labeled cells. […]
(§2) Table S6. TMLD- linear peptides inhibition of adhesion of integrin expressing cells to the respective immobilized ligands a a The cells were incubated for 30 min at 37 °C with the cells (1 x 105) in the 96 -well plate, previously covered with extracellular matrix ligand, in 100 µL of HBSS containing calcium and magnesium. After being washed with the same buffer, the adhered cells were lysed by Triton X-100, and the plate was read using Tecan spectrofluorimeter. The inhibitory dose 50% (IC 50) values represent ing mean ± standard deviatio ns (n=6) were calculated from dose response curves. bJurkat cells,VCAM -1; c α9-SW480 overexpressing cells, VCAM-1; d α1-K562 overexpressing cells, collagen IV ;e α2-K562 overexpressing cells, collagen I; f K562 wild type

α2β1-collagen I = target: T2, α2β1-collagen I (Homo sapiens, UniProt P05556+P17301); assay: Adhesion of α2-K562 overexpressor cells to immobilized collagen I; format: cell-based; details: α2-K562 overexpressed cells; 30 min at 37 °C; read-out: IC50 α2β1-collagen I
T2 construct: expressed in transfected cells; host or cells: K562 transfected with α2 integrin (gift of Dr. M. Hemler)
Protocol: as §1, §2

α5β1-fibronectin = target: T3, α5β1-fibronectin (Homo sapiens, UniProt P05556+P08648); assay: Adhesion of wild-type K562 cells to immobilized fibronectin; format: cell-based; details: wild-type K562 (α5β1); 30 min at 37 °C; read-out: IC50 α5β1-fibronectin
T3 construct: host or cells: K562 wild type
Protocol: as §1, §2

α4β1-VCAM-1 Fc chimera = target: T4, α4β1-VCAM-1 Fc chimera (Homo sapiens, UniProt P05556+P13612); assay: ELISA solid-phase ligand-receptor binding, integrin α4β1 to VCAM-1 Fc chimera
T4 construct: purchased R&D Systems Co (Minneapolis, MN)
Protocol: (§3) Recombinant human VCAM-1 and MadCAM-1 (3 mg/mL in phosphate-buffered saline containing divalent cations), were immobilized on the wells of a 96-well ELISA plate (Dynatech Immulon) by overnight incubation at 4 °C. After washing with HBSST (Hanks’ Balanced Salt solution containing calcium and magnesium and 0.05% Tween-20) the plates were blocked with 5% BSA in HBSST by incubation at 37 °C for 1 h. The plates were washed with HBSST, and recombinant human integrin α4β1 or α4β7 (3 mg/mL) was added in the presence or absence of competitor cyclic peptides, disintegrins, or monoclonal anti-integrin antibodies dissolved in HBSS containing 1% BSA. The plates were thereafter incubated at 30 °C for 3 h, as time-binding had reached a plateau, and then washed 3 times with HBSST. Bound integrins were quantitated using primary anti-integrin polyclonal and monoclonal antibodies at a concentration of 0.5 mg/mL in HBSST containing 1% BSA, and incubated at 37 °C for 1 h. The plates were washed 3 times with HBSST and secondary antibodies- alkaline phosphatase (AP) conjugated (Sigma Co.) were added at dilution 1:1000 and incubated at 37 °C for 1 h. Thereafter, the plates were washed 3 times with HBSST and twice with HBSS and the alkaline phosphatase substrate 4-nitrophenyl phosphate was added to the wells for 30 min. The plates were read using Tecan Spectrophotometer at 405 nm. The level of nonspecific binding was measured in each experiment by determining the level of binding to wells coated with BSA alone.

α4β7-MAdCAM-1 Fc chimera = target: T5, α4β7-MAdCAM-1 Fc chimera (Homo sapiens, UniProt P13612+P26010); assay: ELISA solid-phase ligand-receptor binding, integrin α4β7 to MAdCAM-1 Fc chimera
T5 construct: purchased R&D Systems Co (Minneapolis, MN)
Protocol: as §3

α9β1-VCAM-1 Fc chimera = α9β1-VCAM-1 Fc chimera (Homo sapiens, UniProt P05556+Q13797); assay: ELISA binding assay, α9β1 to VCAM-1 Fc chimera
[1] = target: T6, α4β1 (Jurkat lymphocytes-VCAM-1) (Homo sapiens, UniProt P05556+P13612); assay: Adhesion of Jurkat lymphocytes to immobilized VCAM-1; format: cell-based
T6 construct: host or cells: Jurkat (untreated or TNFα-treated)
Protocol: as §1, §2

[2] = Jurkat treated with TNF-α (10 ng/mL) for 24 h, read-out: IC50 Jurkat lymphocytes-VACAM-1 TNFα
[3] = untreated Jurkat lymphocytes (α4β1), read-out: IC50 Jurkat lymphocytes-VACAM-1 control

T3 sequence (P08648 42-894 limits assumed): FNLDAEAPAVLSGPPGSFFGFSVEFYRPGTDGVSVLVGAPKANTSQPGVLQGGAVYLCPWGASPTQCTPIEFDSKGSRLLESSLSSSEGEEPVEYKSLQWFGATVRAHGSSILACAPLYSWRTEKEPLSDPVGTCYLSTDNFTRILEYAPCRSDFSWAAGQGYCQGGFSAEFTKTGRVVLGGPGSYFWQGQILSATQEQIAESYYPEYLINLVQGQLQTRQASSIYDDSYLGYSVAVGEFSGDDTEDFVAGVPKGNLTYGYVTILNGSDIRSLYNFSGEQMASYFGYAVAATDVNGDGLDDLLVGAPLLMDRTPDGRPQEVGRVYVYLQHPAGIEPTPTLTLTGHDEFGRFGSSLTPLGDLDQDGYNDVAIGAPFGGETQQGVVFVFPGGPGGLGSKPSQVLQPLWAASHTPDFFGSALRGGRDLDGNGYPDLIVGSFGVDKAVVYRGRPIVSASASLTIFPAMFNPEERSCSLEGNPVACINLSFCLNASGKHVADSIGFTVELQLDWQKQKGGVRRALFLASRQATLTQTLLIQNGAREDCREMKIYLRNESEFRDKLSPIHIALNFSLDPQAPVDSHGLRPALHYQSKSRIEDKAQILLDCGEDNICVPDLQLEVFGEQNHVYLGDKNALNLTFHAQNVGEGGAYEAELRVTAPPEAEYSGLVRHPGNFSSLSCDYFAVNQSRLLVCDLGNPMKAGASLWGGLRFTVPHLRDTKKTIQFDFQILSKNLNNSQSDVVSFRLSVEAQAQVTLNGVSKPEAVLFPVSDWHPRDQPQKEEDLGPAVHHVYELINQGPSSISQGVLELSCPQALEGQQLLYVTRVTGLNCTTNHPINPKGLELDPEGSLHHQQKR
T3 sequence (P08648 895-1049 limits assumed): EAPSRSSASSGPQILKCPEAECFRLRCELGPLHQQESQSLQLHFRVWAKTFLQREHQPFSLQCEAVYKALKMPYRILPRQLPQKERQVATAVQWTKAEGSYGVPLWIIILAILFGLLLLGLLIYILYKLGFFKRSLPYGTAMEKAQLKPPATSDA
T3 sequence (P05556 21-798): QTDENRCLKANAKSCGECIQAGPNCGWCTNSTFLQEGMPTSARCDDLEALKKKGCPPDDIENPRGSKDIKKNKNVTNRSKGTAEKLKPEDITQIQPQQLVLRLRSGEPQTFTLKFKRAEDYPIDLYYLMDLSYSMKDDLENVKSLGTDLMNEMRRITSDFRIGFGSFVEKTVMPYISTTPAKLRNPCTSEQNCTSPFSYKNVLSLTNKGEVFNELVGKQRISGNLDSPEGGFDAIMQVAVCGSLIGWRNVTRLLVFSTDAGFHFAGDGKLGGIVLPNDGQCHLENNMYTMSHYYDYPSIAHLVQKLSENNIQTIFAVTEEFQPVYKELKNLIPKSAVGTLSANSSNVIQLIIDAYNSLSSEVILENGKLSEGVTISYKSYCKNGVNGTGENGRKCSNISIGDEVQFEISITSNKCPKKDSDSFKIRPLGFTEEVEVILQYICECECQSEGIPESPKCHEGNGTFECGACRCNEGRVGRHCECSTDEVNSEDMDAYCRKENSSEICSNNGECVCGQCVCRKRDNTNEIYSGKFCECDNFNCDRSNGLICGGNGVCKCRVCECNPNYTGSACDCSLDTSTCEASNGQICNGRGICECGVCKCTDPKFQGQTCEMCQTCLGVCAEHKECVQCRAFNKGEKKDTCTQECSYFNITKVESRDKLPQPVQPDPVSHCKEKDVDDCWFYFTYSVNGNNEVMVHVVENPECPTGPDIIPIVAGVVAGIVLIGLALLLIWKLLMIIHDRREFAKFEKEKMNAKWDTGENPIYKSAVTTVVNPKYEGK
Chain of α9β1-VCAM-1 Fc chimera (Q13797 30-1035, change not shown): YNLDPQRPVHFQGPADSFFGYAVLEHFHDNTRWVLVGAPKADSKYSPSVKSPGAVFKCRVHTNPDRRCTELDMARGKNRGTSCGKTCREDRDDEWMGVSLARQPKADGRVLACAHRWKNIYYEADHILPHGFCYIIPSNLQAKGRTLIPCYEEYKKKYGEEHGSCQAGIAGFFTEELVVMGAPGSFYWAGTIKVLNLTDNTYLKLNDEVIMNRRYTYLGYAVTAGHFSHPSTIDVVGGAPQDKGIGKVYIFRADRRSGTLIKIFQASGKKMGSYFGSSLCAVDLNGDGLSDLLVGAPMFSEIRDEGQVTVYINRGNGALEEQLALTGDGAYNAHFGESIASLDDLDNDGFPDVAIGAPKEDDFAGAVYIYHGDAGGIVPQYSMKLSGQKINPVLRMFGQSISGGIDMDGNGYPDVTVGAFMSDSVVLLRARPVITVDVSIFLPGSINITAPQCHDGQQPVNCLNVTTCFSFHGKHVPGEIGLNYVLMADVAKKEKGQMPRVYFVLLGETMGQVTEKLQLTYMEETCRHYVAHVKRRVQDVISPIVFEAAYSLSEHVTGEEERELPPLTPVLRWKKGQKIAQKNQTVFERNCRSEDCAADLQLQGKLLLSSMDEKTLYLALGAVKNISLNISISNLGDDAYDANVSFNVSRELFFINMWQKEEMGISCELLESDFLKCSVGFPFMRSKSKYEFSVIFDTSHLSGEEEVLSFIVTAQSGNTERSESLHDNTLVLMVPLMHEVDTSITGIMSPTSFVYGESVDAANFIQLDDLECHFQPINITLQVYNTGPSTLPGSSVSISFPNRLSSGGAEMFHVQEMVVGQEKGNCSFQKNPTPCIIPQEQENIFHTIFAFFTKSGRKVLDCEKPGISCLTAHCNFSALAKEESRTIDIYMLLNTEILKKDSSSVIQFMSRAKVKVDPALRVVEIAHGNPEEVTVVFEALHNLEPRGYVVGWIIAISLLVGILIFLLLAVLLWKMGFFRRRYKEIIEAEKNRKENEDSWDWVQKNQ
Chain of α9β1-VCAM-1 Fc chimera (P05556 21-798, change not shown): as the sequence (P05556 21-798) above
T1 sequence (P56199 29-1179): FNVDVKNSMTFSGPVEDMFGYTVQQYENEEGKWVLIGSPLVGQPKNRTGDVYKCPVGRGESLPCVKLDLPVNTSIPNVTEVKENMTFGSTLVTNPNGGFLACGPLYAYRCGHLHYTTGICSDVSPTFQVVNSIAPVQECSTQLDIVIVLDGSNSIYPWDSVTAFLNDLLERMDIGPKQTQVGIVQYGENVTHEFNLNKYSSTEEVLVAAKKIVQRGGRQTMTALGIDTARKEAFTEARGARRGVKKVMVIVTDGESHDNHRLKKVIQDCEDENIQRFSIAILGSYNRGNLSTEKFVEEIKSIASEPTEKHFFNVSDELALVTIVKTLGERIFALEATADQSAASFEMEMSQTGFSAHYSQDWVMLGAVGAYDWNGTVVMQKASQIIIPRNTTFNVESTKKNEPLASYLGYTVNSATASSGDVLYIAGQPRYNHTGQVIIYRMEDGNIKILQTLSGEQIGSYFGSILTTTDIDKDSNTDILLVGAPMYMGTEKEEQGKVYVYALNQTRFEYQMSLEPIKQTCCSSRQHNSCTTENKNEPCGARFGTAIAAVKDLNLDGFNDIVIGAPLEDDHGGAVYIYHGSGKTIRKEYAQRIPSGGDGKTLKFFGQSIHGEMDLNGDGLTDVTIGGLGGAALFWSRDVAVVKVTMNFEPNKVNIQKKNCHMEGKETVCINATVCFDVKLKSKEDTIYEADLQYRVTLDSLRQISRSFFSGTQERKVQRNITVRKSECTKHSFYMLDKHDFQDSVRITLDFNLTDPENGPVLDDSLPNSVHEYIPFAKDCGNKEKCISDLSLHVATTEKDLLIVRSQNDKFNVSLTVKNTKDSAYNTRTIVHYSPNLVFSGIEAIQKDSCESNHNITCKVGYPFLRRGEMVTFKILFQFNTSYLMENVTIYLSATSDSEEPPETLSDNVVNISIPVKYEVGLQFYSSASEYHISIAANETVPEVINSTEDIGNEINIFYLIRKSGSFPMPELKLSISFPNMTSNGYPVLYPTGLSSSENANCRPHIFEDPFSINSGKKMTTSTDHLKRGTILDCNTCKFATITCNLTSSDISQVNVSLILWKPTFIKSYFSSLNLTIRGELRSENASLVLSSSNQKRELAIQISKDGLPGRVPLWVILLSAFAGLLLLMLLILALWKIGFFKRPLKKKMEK
T1 sequence (P05556 21-798): as the sequence (P05556 21-798) above

| Molecule | IC50 (α1β1-collagen IV) [mM] | IC50 (α2β1-collagen I) [mM] | IC50 (α5β1-fibronectin) [mM] | IC50 (α4β1-VCAM-1 Fc chimera) [nM] | IC50 (α4β7-MAdCAM-1 Fc chimera) [µM] | IC50 (α9β1-VCAM-1 Fc chimera) [nM] | IC50 [1, 2] [nM] | IC50 [1, 3] [nM] | IC50 (α4β1-VCAM-1 Fc chimera; ELISA binding assay, recombinant human VCAM-1 chimera, read-out: IC50 α4β1-VCAM-1 Fc chimera) [nM] | IC50 (α4β7-MAdCAM-1 Fc chimera; ELISA binding assay, recombinant human MAdCAM-1 chimera, read-out: IC50 α4β7-MAdCAM-1 Fc chimera) [µM] | IC50 (α9β1-VCAM-1 Fc chimera; ELISA binding assay per footnote b, α9-B1LBC3 overexpressed cells named in footnote a, read-out: IC50 α9β1-VCAM-1 Fc chimera) [nM] |
| --- | --- | --- | --- | --- | --- | --- | --- | --- | --- | --- | --- |
| CSCC[C@@H]1NC(=O)[C@H]([C@@H](C)O)NC(=O)CN(C(=O)[C@@H](N)CCCCN)CCNC(=O)NCCN(CC(=O)N[C@@H](CC(C)C)C(N)=O)C(=O)[C@H](CC(=O)O)NC(=O)[C@H](CC(C)C)NC1=O [visabron c (2–2)] (H-K[N(2-Aminoethyl)Gly]TMLD[N(2-Aminoethyl)Gly]L-NH2; linker 2-7 via CO) | > 10 | > 10 | > 10 | 2300 | > 500 | 3600 | 500 | 7000 | – | – | – |
| CSCC[C@@H]1NC(=O)[C@H]([C@@H](C)O)NC(=O)CN(C(=O)[C@@H](N)CCCCN)CCCCNC(=O)NCCCCN(CC(=O)N[C@@H](CC(C)C)C(N)=O)C(=O)[C@H](CC(=O)O)NC(=O)[C@H](CC(C)C)NC1=O [visabron c (4–4)] (H-K[Nlys]TMLD[Nlys]L-NH2; linker 2-7 via CO) | > 10 | > 10 | > 10 | 400 | > 500 | 400 | 400 | 5000 | – | – | – |
| natalizumab: clinical-grade monoclonal antibody anti-α4β1 produced by Biogen Co. [reference compound] | > 10 | > 10 | > 10 | – | – | – | 2 | 5 | 10 | 0.015 | 15 |
